Laboratory results published in patent US5614370A, “Assay to identify human C5a antagonists and agonists” (Merck & Co., Inc., priority 1994, dated 1997).
“Also recorded” adds a separate entry of the source. Where two headings read alike, the source gives them in different places. Non-standard residues stand in square brackets, D forms with d. Residues, ends and D or L forms follow the SMILES beside them. 1Nal = N[C@@H](Cc1cccc2ccccc12)C(=O)O; NMeF = CN[C@@H](Cc1ccccc1)C(=O)O; Cha = N[C@@H](CC1CCCCC1)C(=O)O; dCha = N[C@H](CC1CCCCC1)C(=O)O

T1: C5a receptor (Homo sapiens, UniProt P21730)
T1 construct: followed by a 20 μL aliquot of neutrophil membrane; endogenous in cells
T1 sequence (P21730 1-350): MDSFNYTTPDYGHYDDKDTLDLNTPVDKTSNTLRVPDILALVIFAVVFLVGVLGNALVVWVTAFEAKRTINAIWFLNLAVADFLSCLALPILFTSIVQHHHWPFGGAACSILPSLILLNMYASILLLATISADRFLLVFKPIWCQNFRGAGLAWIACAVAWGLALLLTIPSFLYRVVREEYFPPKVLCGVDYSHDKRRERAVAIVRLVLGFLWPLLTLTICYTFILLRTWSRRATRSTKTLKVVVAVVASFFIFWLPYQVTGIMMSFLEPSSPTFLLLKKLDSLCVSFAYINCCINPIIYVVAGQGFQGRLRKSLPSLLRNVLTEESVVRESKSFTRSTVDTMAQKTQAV


Legend:
C5a receptor = biological target: T1, C5a receptor; test: Competition binding against 125I-labeled intact C5a on human neutrophil (PMN) membranes
From the text: The affinity of these peptides is shown, for example, by radiolabeling intact C5a, and using the unlabeled peptide to compete the labeled C5a from C5a receptor binding sites on cellular membranes. Preparations of polymorphonuclear leukocytes (PMN's) are known to express the C5a receptor, (inhibition of the chemotactic response to C5a of this type of cell is one desirable utility for compounds identified by the instant assay). One method for preparing these membranes is described by Rollins, T. E. et al., [J. Biol. Chem. 264:520-526 (1988); see also U.S. Pat. No. 5,177,190, herein incorporated by reference as a method for isolating and purifying C5a receptor]. Briefly, this involves isolating PMN's in large quantity, disrupting these cells and obtaining the membrane fraction by centrifugation. Protein assay of the membrane preparation allows for standardization of the amount of protein added in any set of membrane binding experiments.
In FIG. 1, unlabeled C013 is used to compete with ^125 I-labeled C5a. […] In FIG. 2, the C013 is ^125 I labeled. Unlabeled C5a and unlabeled C013 are each used to compete the labeled C013 from C5a binding sites on the membranes. […] In FIG. 3a, ^125 I-C5a is competed from its binding site by unlabeled C064 and unlabeled, natural C5a (as opposed to recombinant C5a, which, however, may also obviously may be used for these purposes). […] In FIG. 3b, the inverse experiment is shown, wherein ^125 I-C064 is displaced by unlabeled C064 and unlabeled nC5a.
Hexapeptides within this class differing only at position X have similar affinities for the C5a receptor. As measured in competition binding experiments against ^125 I-C5a on human neutrophil membranes their IC50 's varied by only a factor of 3, from 25 to 80 nM (Table II):
^2 Binding experiments were carried out with human neutrophil
Binding is initiated by an addition of 20 μL of PMN membrane (typically 0.5 μg of protein) to each tube. After incubation for 90 min. at room temperature 2 ml of 0.05 M HEPES, pH 7.2, containing 0.5% BSA are added to the tube, the contents vortexed and filtered over a Whatman GF/C filter which has been soaked in 0.3% polyethylenimine. An additional 2 ml of buffer are added to the tube and used to wash the filter. All of the test samples are dissolved in DMSO, another water miscible organic solvent, or in an aqueous solvent. Non-specific background was determined by inclusion of a 100-fold excess of unlabeled C5a.
The percent inhibition is calculated according to the following formula: [formula]
Iodination of C5a was carded out with the use of chloramine T. (Rollins, T.E., and Springer, M.S. (1985) J. Biol. Chem. 260, 7157-7160). […] Concentrations of C5a were determined by amino acid analysis and by RIA (Amersham Corp.). Membranes were prepared from human PMN as described by Rollins, T.E., Sciliano, S and Springer, M.S., J. Biol Chem 264 520-526 (1988).

[1] = tested on: human neutrophil membranes; test: GTPase activity in neutrophil membranes (G protein activation); type: biochemical
From the text: (§1) FIG. 6A and 6B. Chemotaxis and G protein activation elicited by the hexapeptides.
Since C5a evokes such a plethora of biological responses, it is difficult to ascertain a molecule's overall functional properties from any subset of responses. […] An alternative to investigating all of the responses generated by the C5a receptor, is to determine a molecule's ability to stimulate G protein activation. Such a measurement should give an integrated view of a molecule's agonist properties. As a measure of G protein activation we have investigated the peptides' abilities to stimulate GTPase activity in human neutrophil membranes:
The method of Kupper et al. (Kupper, R. W., Dewald, B., Jakobs, K. H., Baggiolini, M. and Gierschik, P. (1992) Biochem. J. 282, 429-434) was adapted for use in microtiter plates. Neutrophil membranes were suspended in 50 mM triethanolamine-HCl, 5 mM MES, pH 7.3, containing 1 mM EDTA, 5 mM MgCl2, 143 mM NaCl, 0.16 % BSA, 1 mM ouabain, 1 mM AMP-PNP, 0.5 mM ATP, 2.5 U/mL creatine phosphokinase,. 10 mM creatine phosphate, 0.1 mM PMSF and 10 ng/mL each of leupeptin, aprotinin and chymostatin. 50 μL of membranes containing 1-5 μg protein were added to 50 μL of the same buffer containing the test agent and 0.25 μM [γ-^32 P]-GTP (2,000 cpm/pmol) in the wells of a U-shaped microtiter plate. After incubation for 15-30 rain at 29° C., 100 μL of a 10% (w/v) charcoal suspension in 100 mM H3 PO4 was added and plates were centrifuged at 2000 rpm for 5 min. 100 μL of the supernatant was transferred to an Optiplate microtiter plate and 100 μL of Microscint-40 scintillation cocktail was added. Plates were counted in a Packard TopCount microtiter plate counter.

human neutrophils = test: Chemotaxis, Boyden Chamber assay; type: cell-based; details: FIG. 6A
Description: as §1
This assay is a modification of the procedure described by Sims et. al. (Sims, T. J., Geissler, F. T. and Page, R. C. (1985) J. lmmunol. Meth. 78, 279-291 ). Chemotaxis was assayed in a 48 well Neuro Probe chamber (Neuro Probe, Bethesda, MD) using ^51 Cr-labelled cells. Varying concentrations of C5a or peptide were placed in the lower chamber which was successively covered by a 100 μm nitrocellulose membrane (Neuro Probe, Bethesda, Md.) and two 3 μm polycarbonate filters. After preforming a gradient for 30 minutes at 37° C., 2×10^5 labelled cells were added to the upper chamber and allowed to migrate at 37° C. for one hour. The upper two polycarbonate filters were then discarded and the formed wells cut from the nitrocellulose membrane. The radioactivity present in these filters is a measure of the number of cells that migrated through both polycarbonate filters.
A plot of the initial concentration of agent placed in the lower chamber against the number of cells which migrate (measured by counting the ^51 Cr-labelled cells) is shown in FIG. 6A. For C5a, maximal response occurs at 10 nM. Since the cells migrate in response to the concentration gradient established across the filters, the actual stimulatory concentration is much lower than the nominal value plotted on the abcissa in FIG. 6A.

[2] = Table II, human neutrophil membranes, competition against 125I-C5a, read-out: Binding IC50
[3] = nominal initial concentration in lower chamber

| Molecule | Ki (C5a receptor) | IC50 (C5a receptor; [2]) | EC50 ([1]; FIG. 6B, read-out: ED50 for stimulation of GTPase activity) | binding affinity in words (C5a receptor) | IC50 (C5a receptor; labeled ligand 125I-C5a, read-out: IC50 exhibited by the unlabeled ligand) | stimulation of GTPase activity / G protein activation in words ([1]; FIG. 6B) | chemotactic response in words (human neutrophils) | concentration of maximal chemotactic response (maximal migration) (human neutrophils; [3]) | GTPase activity ([1]; 3 nM C5a, absence of C089, raised from 46) | concentration of maximal chemotactic response (human neutrophils; [3]) |
| --- | --- | --- | --- | --- | --- | --- | --- | --- | --- | --- |
| CN[C@@H](Cc1ccccc1)C(=O)N[C@@H](CCCCN)C(=O)N1CCC[C@H]1C(=O)N[C@H](CC1CCCCC1)C(=O)N[C@@H](Cc1ccccc1)C(=O)N[C@H](CCCNC(=N)N)C(=O)O [C026, NMeF--K--P-dCha-F-dR] (H-[NMeF]KP[dCha]F[dR]-OH) | – | 50 nM | – | – | – | full agonist in chemotaxis or C5a receptor-linked G-protein activation; also recorded: somewhat reduced ability to stimulate the GTP hydrolysis | full agonist in chemotaxis; also recorded: strong chemoattractants; also recorded: as chemotactic as C028 | 1 µM | – | – |
| CN[C@@H](Cc1ccccc1)C(=O)N[C@@H](CCCCN)C(=O)N1CCC[C@H]1C(=O)N[C@H](CC1CCCCC1)C(=O)N[C@@H](CC1CCCCC1)C(=O)N[C@H](CCCNC(=N)N)C(=O)O [C028, MePhe Lys Pro dCha Cha dArg] (H-[NMeF]KP[dCha][Cha][dR]-OH) | – | 25 nM | 100 nM | – | – | stimulates as much GTPase activity as does C5a | strong chemoattractants | 1 µM | – | – |
| CN[C@@H](Cc1ccccc1)C(=O)N[C@@H](CCCCN)C(=O)N1CCC[C@H]1C(=O)N[C@H](CC1CCCCC1)C(=O)N[C@@H](Cc1c[nH]c2ccccc12)C(=O)N[C@H](CCCNC(=N)N)C(=O)O [C089] | – | – | – | excellent ability to inhibit C5a binding | – | does not stimulate G protein activation; also recorded: fails entirely to stimulate GTP hydrolysis | little or no ability to stimulate a chemotactic response | – | – | – |

Further lines, with some results ahead:

| Ki (C5a receptor) | IC50 (C5a receptor; [2]) | EC50 ([1]; FIG. 6B, read-out: ED50 for stimulation of GTPase activity) | binding affinity in words (C5a receptor) | IC50 (C5a receptor; labeled ligand 125I-C5a, read-out: IC50 exhibited by the unlabeled ligand) | Molecule | stimulation of GTPase activity / G protein activation in words ([1]; FIG. 6B) | chemotactic response in words (human neutrophils) | concentration of maximal chemotactic response (maximal migration) (human neutrophils; [3]) | GTPase activity ([1]; 3 nM C5a, absence of C089, raised from 46) | concentration of maximal chemotactic response (human neutrophils; [3]) |
| --- | --- | --- | --- | --- | --- | --- | --- | --- | --- | --- |
| 8 nM | – | – | – | – | CC(C)C[C@H](NC(=O)[C@H](CC1CCCCC1)NC(=O)[C@H](CC1CCCCC1)NC(=O)[C@H](C)NC(=O)[C@H](CCCCN)NC(=O)[C@H](Cc1ccccc1)NC(=O)[C@@H](N)Cc1ccc(O)cc1)C(=O)N[C@H](Cc1ccccc1)C(=O)N[C@@H](CCCNC(=N)N)C(=O)O [C009, Tyr Phe Lys Ala Cha Cha Leu dPhe Arg] (H-YFKA[Cha][Cha]L[dF]R-OH) | – | – | – | – | – |
| – | 80 nM | – | – | – | CN[C@@H](Cc1ccccc1)C(=O)N[C@@H](CCCCN)C(=O)N1CCC[C@H]1C(=O)N[C@H](CC1CCCCC1)C(=O)N[C@@H](Cc1cccc2ccccc12)C(=O)N[C@H](CCCNC(=N)N)C(=O)O [C061] (H-[NMeF]KP[dCha][1Nal][dR]-OH) | significantly lower GTPase activity | good chemotactic activity; also recorded: elicits as great an accumulation of cells as either C026, or C028, or for that matter, C5a | about 100 μM | – | – |
| – | 0.03 nM | – | – | 0.066 nM | C5a: 74 amino acid protein derived from the fifth component of serum complement during complement activation (protein, UniProt P01031 678-751, looked up, C5a anaphylatoxin) C5a anaphylatoxin: TLQKKIEEIAAKYKHSVVKKCCYDGACVNNDETCEQRAARISLGPRCIKAFTECCVVASQLRANISHKDMQLGR | – | – | – | 64 pmol/min/mg protein | 10 nM |
